Consider seven compounds from patent US20230128688A1, “DIRECTED CONJUGATION TECHNOLOGIES” (KLEO PHARMACEUTICALS, INC., priority 2019, published 2023).

For one assay, the system named is daratumumab. Description: Absorbance based DAR analysis of FITC conjugation to antibody. The assay is classed as biochemical. The protocol:
(§1) In some embodiments, reaction partners, e.g., compounds of formula R-I or salts thereof ere dissolved in DMSO to 5 mM stock solution.
(§2) In some embodiments, reactions are set up with 300 micrograms of antibody. In some embodiments, various conditions, including various buffers, reagent equivalents, reaction time, reaction temperature and reaction concentrations can be utilized.
As an example, one reaction is 300 microliter reaction with 1 mg/mL of antibody in PBS. Peptide I-45 (1 microliter of 5 mM stock in DMSO, 2.5 molar equivalents relative to daratumumab) was diluted in 284 microliters of PBS buffer (10 mM phosphate, 150 mM sodium chloride, pH 7.4), then 15 microliters of daratumumab (20 mg/mL stock) was added to the reaction mixture followed by incubation at room temperature in the dark. After 4 h reaction buffer was exchanged using Amicon Ultra centrifuge filter (30 KDa MWCO, 0.5 mL volume). First, glycine buffer (100 mM, pH 2.1) was used for buffer exchange to ensure dissociation of target binding moieties after reaction. Then, phosphate buffer saline (pH 7.4) was used for further buffer exchange and storage.
In another example, a reaction is 300 microliter reaction with 1 mg/mL of antibody in borate buffer. Peptide I-44 (1.2 microliter of 5 mM stock in DMSO, 3.0 molar equivalents relative to daratumumab) was diluted in 284 microliters of Borate buffer (100 mM borate, pH 8.3), then 15 microliters of daratumumab (20 mg/mL stock) was added to the reaction mixture followed by incubation at room temperature in the dark. After 20 h reaction buffer was exchanged using Amicon Ultra centrifuge filter (30 KDa MWCO, 0.5 mL volume). First, glycine buffer (100 mM, pH 2.1) was used for buffer exchange to ensure dissociation of target binding moieties after reaction. Then, phosphate buffer saline (10 mM phosphate, 150 mM sodium chloride, pH 7.4) was used for further buffer exchange and storage.
(§3) In some embodiments, a useful technology is absorbance based DAR analysis. DAR (ratio of moieties of interest and target agent moieties (e.g., antibody agent moieties) was calculated for various antibody conjugates, e.g., in various reagent screening/assessment methods. Various agents comprising target binding moieties were assessed for conjugation efficiency as reaction partners with targets, e.g. protein agents such as antibody agents, compared to reagents with the same reactive groups but without target binding moieties. In various ratio determination ‘Drug’/moiety of interest is fluorescein isothiocyanate (FITC) dye conjugated to target agents, e.g., antibody agents. DAR molar ratio is defined as a ratio of moles of drug/moiety of interest to moles of target agent/antibody. Molarity is calculated from absorbance of FITC (A485) and antibody (A280) of conjugated product, and extinction coefficients of FITC and antibody using Beer-Lambert law. Correction coefficient 0.35 was used to correct for absorbance of FITC at 280 nm. Biotek Synergy H1 microplate reader and Take3 microvolume plate were used for absorbance measurements. Concentration of antibody was at least 3 mg/mL for optimal signal-to-noise in the readings. Certain target binding moieties that can provide higher DAR compared to equivalent controls (absence of target binding moieties) were selected as hits for further analysis. Certain assessment data were provided below as examples.

In the next assay the test system is Cetuximab. Described as above. The note with it: 2.5 M eq reagent, phosphate buffer saline pH 7.4, 4 h, 25 C; Drug = FITC. It counts as biochemical. The protocol: as §1, §2, §3
Reactions were set up with antibodies using 2.5 M eq of indicated reagent in phosphate buffer saline pH 7.4 for 4 h at 25° C. DAR is Drug to antibody ratio, in this case “Drug” is FITC and DAR is measured using FITC absorbance.

The mark [1] stands for this setting: 2.5 M eq reagent, phosphate buffer saline pH 7.4, 4 h, 25 C, Drug = FITC.
The mark [2] stands for this setting: antibody 1 mg/mL, 2.5 M eq, 25 C, 20 h, PBS pH 7.4.
Setting [3] is: antibody 1 mg/mL, 3 M eq, 25 C, 20 h, PBS pH 7.4.
Where [4] appears, read: antibody 1 mg/mL, 3.5 M eq, 25 C, 20 h, PBS pH 7.4.
The mark [5] stands for this setting: antibody 4 mg/mL, 2.5 M eq, 25 C, 20 h, PBS pH 7.4.
Setting [6] is: antibody 4 mg/mL, 3 M eq, 25 C, 20 h, PBS pH 7.4.
The mark [7] stands for this setting: antibody 4 mg/mL, 3.5 M eq, 25 C, 20 h, PBS pH 7.4.
Where [8] appears, read: 2.5 M eq, 25 C, 4 h, PBS pH 7.4.
Where [9] appears, read: 5 M eq reagent, phosphate buffer saline pH 7.4, 4 h, 25 C, Drug = FITC.
The mark [10] stands for this setting: 2.5 M eq, 25 C, 20 h, Borate pH 8.2.
Where [11] appears, read: 2.5 M eq, 25 C, 20 h, PBS pH 7.4.
Setting [12] is: 2.5 M eq, 25 C, 20 h, PBS pH 7.8.
Setting [13] is: 2.5 M eq, 25 C, 20 h, PBS pH 8.0.
Where [14] appears, read: 2.5 M eq, 25 C, 20 h, PBS pH 8.2.
[15] abbreviates: 2.5 M eq, 30 C, 20 h, PBS pH 7.4.
The mark [16] stands for this setting: 2.5 M eq, 37 C, 20 h, PBS pH 7.4.

Structures are written as SMILES. Starred links: 1 amine or outer side, 2 acyl side, 3 side chain; linkers in the order of their positions; H or OH if unused. Positions of bridges follow the written chain, without caps; N, C: chain ends. Non-standard residues stand in square brackets, D forms with d. Residues, ends and D or L forms follow the SMILES beside them. Groups on a side chain read outwards from the residue. *: point of attachment. X2 = O=C(CCOCCOCCOCCOCCOCCOCCNC(=S)Nc1ccc2c(c1)C(=O)OC21c2ccc(O)cc2Oc2cc(O)ccc21)Oc1c(F)cc(CN*)cc1F; FITC = O=C1OC2(c3ccc(O)cc3Oc3cc(O)ccc32)c2ccc(NC(=S)*)cc21; X6 = O=C([C@H](Cc1cccc(O[*:3])c1)N[*:1])[*:2]; PEG8 = NCCOCCOCCOCCOCCOCCOCCOCCOCCC(=O)O; PEG4 = NCCOCCOCCOCCOCCC(=O)O

Regarding `CC(=O)NCc1cc(F)c(OC(=O)CCOCCOCCOCCOCCOCCOCCNC(=S)Nc2ccc3c(c2)C(=O)OC32c3ccc(O)cc3Oc3cc(O)ccc32)c(F)c1` [Compound I-9], the DAR in the assay with daratumumab (setting [1]) was found to be 0.06; in the assay on daratumumab (10 M eq reagent, Bicarbonate buffer pH 8.3, 2 h, 37 C, Drug = FITC), 1.10; with daratumumab (setting [2]), 0.19; with daratumumab (setting [3]), 0.18; in the assay with daratumumab (setting [4]), 0.24; in the assay with daratumumab (setting [5]), 0.37. Moreover, the DAR in the assay with daratumumab (setting [6]) was determined as 0.49; with daratumumab (setting [7]) it was 0.44. In addition, in the assay with daratumumab (setting [1]), the “DAR Daratumumab” value was determined as 0.06. Besides, the “DAR Cetuximab” value with Cetuximab was 0.03.

Take `CCNC(=O)c1ccc(OC(=O)CCOCCOCCOCCOCCOCCOCCNC(=S)Nc2ccc3c(c2)C(=O)OC32c3ccc(O)cc3Oc3cc(O)ccc32)c(F)c1` [Compound I-18]: the DAR is given as 0.05 in the assay with daratumumab (setting [1]); 0.08 with daratumumab (2.5 M eq, 25 C, 4 h, Acetate pH 6.2); 0.35 with daratumumab (2.5 M eq, 25 C, 4 h, Borate pH 8.3); 0.05 in the assay with daratumumab (setting [8]); 0.15 with daratumumab (setting [9]); 0.14 in the assay with daratumumab (5 M eq, 25 C, 4 h, Acetate pH 6.2). The DAR with daratumumab (5 M eq, 25 C, 4 h, Borate pH 8.3) was 0.42; with daratumumab (5 M eq, 25 C, 4 h, PBS pH 7.4) it was 0.08; in the assay with daratumumab (10 M eq, 25 C, 2 h, Acetate pH 6.2), 0.12; in the assay on daratumumab (10 M eq, 25 C, 4 h, Borate pH 8.3), 0.77; in the assay on daratumumab (10 M eq, 25 C, 4 h, PBS pH 7.4), 0.15. The “DAR Daratumumab” value in the assay with daratumumab (setting [1]) was determined as 0.05. In the assay on Cetuximab, the “DAR Cetuximab” value worked out at 0.04.

For the compound `CC(=O)N[C@@H](CC(=O)O)C(=O)N[C@H]1CSSC[C@@H](C(=O)N[C@H](C(=O)O)[C@@H](C)O)NC(=O)[C@H](Cc2c[nH]c3ccccc23)NC(=O)[C@H](C(C)C)NC(=O)[C@H](CC(C)C)NC(=O)[C@H](CCC(=O)O)NC(=O)CNC(=O)[C@H](CC(C)C)NC(=O)[C@H](CCNC(=O)c2ccc(OC(=O)CCOCCOCCOCCOCCOCCOCCNC(=S)Nc3ccc4c(c3)C(=O)OC43c4ccc(O)cc4Oc4cc(O)ccc43)cc2)NC(=O)[C@H](Cc2c[nH]c3ccccc23)NC(=O)[C@H](C)NC1=O` [Compound I-42], the DAR in the assay on daratumumab (setting [1]) stood at 0.13.

Take `CC(=O)N[C@@H](CC(=O)O)C(=O)N[C@H]1CSSC[C@@H](C(=O)N[C@H](C(=O)O)[C@@H](C)O)NC(=O)[C@H](Cc2c[nH]c3ccccc23)NC(=O)[C@H](C(C)C)NC(=O)[C@H](CC(C)C)NC(=O)[C@H](CCC(=O)O)NC(=O)CNC(=O)[C@H](CC(C)C)NC(=O)[C@H](CC(=O)NCc2ccc(OC(=O)CCOCCOCCOCCOCCOCCOCCNC(=S)Nc3ccc4c(c3)C(=O)OC43c4ccc(O)cc4Oc4cc(O)ccc43)cc2)NC(=O)[C@H](Cc2c[nH]c3ccccc23)NC(=O)[C@H](C)NC1=O` [Compound I-43]: the DAR in the assay with daratumumab (setting [1]) came out at 0.26.

`CC(=O)N[C@@H](CC(=O)O)C(=O)N[C@H]1CSSC[C@@H](C(=O)N[C@H](C(=O)O)[C@@H](C)O)NC(=O)[C@H](Cc2c[nH]c3ccccc23)NC(=O)[C@H](C(C)C)NC(=O)[C@H](CC(C)C)NC(=O)[C@H](CCC(=O)O)NC(=O)CNC(=O)[C@H](CC(C)C)NC(=O)[C@H](CC(=O)NCc2ccc(OC(=O)CCOCCOCCOCCOCCOCCOCCOCCOCCNC(=S)Nc3ccc4c(c3)C(=O)OC43c4ccc(O)cc4Oc4cc(O)ccc43)c(F)c2)NC(=O)[C@H](Cc2c[nH]c3ccccc23)NC(=O)[C@H](C)NC1=O` [Compound I-44]: the DAR with daratumumab (setting [1]) is on record as 0.59; in the assay on daratumumab (setting [8]), 0.59; with daratumumab (setting [10]), 1.42; in the assay with daratumumab (setting [11]) it was 1.09; in the assay with daratumumab (setting [12]), 1.00; with daratumumab (setting [13]), 0.99. The DAR turned out to be 1.14 in the assay on daratumumab (setting [14]), 1.15 in the assay with daratumumab (setting [15]) and 1.66 in the assay with daratumumab (setting [16]). In addition, the “Fold (DAR I-44 over I-10)” value in the assay on daratumumab (setting [8]) turned out to be 7.79; in the assay with daratumumab (setting [10]), 6.83; with daratumumab (setting [11]) it was 16.08; with daratumumab (setting [12]) it was 6.58; in the assay with daratumumab (setting [13]), 15.39; in the assay on daratumumab (setting [14]), 36.42. The entries for the “Fold (DAR I-44 over I-10)” value in the assay with daratumumab (setting [15]) and in the assay on daratumumab (setting [16]) were 21.43 and 9.77, respectively. In addition, the “FITC DAR” value in the assay with daratumumab (FIG. 16 (e): Borate buffer pH 8.2, 25 C, 20 h, 2.5 M eq) is recorded as 0.21.

As to `CC(=O)NCC(=O)N[C@@H](CO)C(=O)N[C@@H](Cc1ccc(O)cc1)C(=O)N[C@@H](Cc1c[nH]c2ccccc12)C(=O)N[C@@H](Cc1ccc(O)cc1)C(=O)N[C@@H](CC(=O)O)C(=O)N[C@H](C(=O)N[C@@H](Cc1c[nH]c2ccccc12)C(=O)N[C@@H](Cc1ccccc1)C(=O)NCCOCCOCCOCCOCCC(=O)NCc1cc(F)c(OC(=O)CCOCCOCCOCCOCCOCCOCCNC(=S)Nc2ccc3c(c2)C(=O)OC32c3ccc(O)cc3Oc3cc(O)ccc32)c(F)c1)C(C)C` [Compound I-45] (Ac-GSYWYDVWF[PEG4]-X2), the DAR in the assay on daratumumab (setting [1]) is 0.64; with daratumumab (setting [2]), 0.90; in the assay on daratumumab (setting [3]), 0.96; in the assay on daratumumab (setting [4]), 1.06; with daratumumab (setting [5]), 1.04; in the assay on daratumumab (setting [6]), 1.09. For the same compound, in the assay with daratumumab (setting [7]), the DAR was determined as 1.06. Also, the “DAR Daratumumab” value in the assay on daratumumab (setting [1]) came to 0.64. The “Fold (DAR I-45 over I-9)” value is on record as 4.78 with daratumumab (setting [2]); 5.31 in the assay with daratumumab (setting [3]); 4.39 in the assay with daratumumab (setting [4]); 2.81 in the assay with daratumumab (setting [5]); 2.23 with daratumumab (setting [6]); 2.40 with daratumumab (setting [7]). Besides, in the assay with daratumumab (sample (a) of FIG. 12 / FIG. 13), the “FITC DAR” value is reported as 0.43. Also, in the assay with Cetuximab, the “DAR Cetuximab” value stood at 0.70.

Regarding `CC(=O)N[C@@H](CC(=O)O)C(=O)N[C@H]1CSSC[C@@H](C(=O)N[C@H](C(=O)O)C(C)C)NC(=O)[C@H](Cc2c[nH]c3ccccc23)NC(=O)[C@H](C(C)C)NC(=O)[C@H](CC(C)C)NC(=O)[C@H](CCC(=O)O)NC(=O)CNC(=O)[C@H](CC(C)C)NC(=O)[C@H](Cc2cccc(OC(=O)CCOCCOCCOCCOCCOCCOCCOCCOCCNC(=S)Nc3ccc4c(c3)C(=O)OC43c4ccc(O)cc4Oc4cc(O)ccc43)c2)NC(=O)[C@H](Cc2c[nH]c3ccccc23)NC(=O)[C@H](C)NC1=O` [Compound I-46] (Ac-DCAW[X6]([PEG8-FITC])LGELVWCV-OH; disulfide 2-12), the DAR in the assay with daratumumab (setting [9]) came to 0.15; in the assay on daratumumab (30 M eq reagent, borate buffer pH 8.3, 20 h, 37 C, Drug = FITC) it was 0.43.
